Measurements from US11077138B2, “Methods of tissue repair and regeneration” (INNOLIFE CO., LTD., priority 2015, dated 2021).
Entries after “also recorded” stand apart in the source; their conditions may differ.

Tests used:
[1] = test system: BMSCs homing (SDF-1/CXCR4 axis); assay: Tracking of homing of labeled autologous BMSCs to the infarcted rabbit heart; format: in vivo, New Zealand white rabbits; settings: BMSCs incubated overnight with AMD3100
Protocol: (1) Adult male New Zealand white rabbits were preoperative fasted for 12 hours, and the operation room was sterilized by overnight ultraviolet radiation before the surgery. (2) Rabbits were anesthetized with 3 ml/kg chloral hydrate by intraperitoneal administration, and then placed on the operation table in the supine position. Hairs covering chest and limbs at electrode attachment site were shaved. The surgical area was scrubbed with povidone-iodine for 3 consecutive times. Lidocaine was injected into the subcutaneous area around the incision site. (3) Electrodes were attached to the limbs and ECG (electrocardiogram) was recorded 30 minutes before and after the surgery. (4) The rabbits were subjected to a median sternotomy. The skin was cut and the s.c. tissue and the muscular was dissected. Afterwards, the sternum was retracted and the pleuron was dissected, the pleural space was opened and so the pericardium was exposed. (5) After gently incision of the pericardium, the heart was exposed and the left circumflex branch (LC) was ligated. […] (6) Color changes of the anterior ventricular wall, the difference of left ventricular wall motion, and alterations including ST segment recorded by electrodes II, III, and aVF in ECG was monitored for 2 minutes to ensure that the ligation was successful. […]

[2] = test system: isolated rat aortic rings; assay: Isolated rat aortic ring assay for angiogenesis; format: cell-based, Sprague Dawley rats; settings: 8 days
Excerpt: Thoracic aortas were removed from 8- to 10-week-old male Sprague Dawley (SD) rats (292-307 g) and immediately transferred to a culture dish containing ice-cold serum-free endothelial basal medium-2 (EBM-2, Lonza Cologne AG). The periaortic fibroadipose tissue was carefully removed with fine microdissecting forceps and iridectomy scissors; paying special attention not to damage the aortic wall. One-millimeter long aortic rings were sectioned and extensively rinsed in five consecutive washes with EBM-2.
Forty-eight well tissue culture grade plates were covered with 100 μl of matrigel (GFR, BD) and allowed to gel for 45 min at 37° C., 5% CO2. Aortic rings were placed on the matrigel-coated wells, covered with an additional 100 μl matrigel and allowed to gel again for 45 min at 37° C., 5% CO2. The culture was then added 250 μl EBM-2 containing 1% fetal bovine serum (FBS). Copper sulfide solution was added to the culture at a final concentration of 5, 25, 50 or 100 μM copper element. The growth media were removed and replaced every 2 days. Aortic rings were photographed on Day 8.
The area of angiogenic sprouting was calculated using the Image J software program (NIH, Bethesda, Md.). Microvessel densities are reported in square pixels.
(§1) Aortic rings were cultured in 48-well plates in 250 μl EBM-2 (1% FBS) media containing anti-VEGF antibody (Santa Cruz, Calif., USA) at a final concentration of 2 ng/ml. The treatment and angiogenesis assay were the same as above.

VEGF = assay: Western blotting analysis of VEGF in isolated rat aortic rings; format: cell-based, Sprague Dawley rats; settings: for production of VEGF (protein level): 8 days
Protocol: Protein extracts were obtained after lysing rat aortic rings with matrigel in the radio immunoprecipitation assay (RIPA) lysis buffer (Beyotime, Jiangsu, CN) containing 1% complete ethylene diamine tetraacetic acid (EDTA)-free protease inhibitor cocktail (Roche, Mannhein, DE) for 30 min on ice. Equal loading of protein was assured by prior quantitation using a bicinchoninic acid (BCA) protein assay kit (Thermo, Rockford, USA). An appropriate amount of protein in total lysates was resolved in a sodium dodecyl sulfate (SDS)-polyacrylamide electrophoresis gel and transferred onto a polyvinylidene difluoride membrane (Bio-rad, USA). Membranes were blocked for 1 h in Tris-buffered saline/Tween 20 (TBST) (10 mM Tris.HCl, pH 8.0, 150 mM NaCl and 0.1% Tween 20) containing 5% nonfat dry milk and incubated overnight at 4° C. with the primary mouse anti-VEGF antibody (Santa Cruz, Calif., USA) and mouse antibeta actin antibody (ZSGB-BIO, Beijing, CN) diluted in the blocking buffer. After washing with TBST, the membranes were incubated with a horseradish peroxidase (HRP)-linked antimouse immunoglobulin G (IgG) antibody (ZSGB-BIO, Beijing, CN) diluted in TBST for 1 h at room temperature. Target proteins were visualized using a chemiluminescence HRP substrate (Millipore, Billerica, USA).
as §1

HIF-1 = assay: Hypoxia-induced activation of HIF-1 in HepG2 cells; format: cell-based, human
Excerpt: There are multiple sites that potentially require copper for activation of HIF-1, including HIF-1α synthesis, stabilization, translocation from cytosol to nucleus, binding to the HRE sequence of target genes, and HIF-1 transcriptional complex formation. We have specifically determined the mechanism of action of copper in regulation of HIF-1 transcriptional activity in human hepatoma HepG2 cells. […] This CCS gene silencing result excludes possible confounding effect on nonspecific chelation by TEPA. […] Therefore, it was concluded that copper is required for HIF-1 activation through regulation of HIF-1α binding to the HRE and the formation of HIF-1 transcriptional complex. Copper deficiency thus suppresses HIF-1 transcriptional activity by FIH-1 depression.

[3] = copper at concentrations above 50 μM

Compound: c1cc(CN2CCCNCCNCCCNCC2)ccc1CN1CCCNCCNCCCNCC1 [AMD3100]
- homing of AMD3100 treated BMSCs to Cu-albumin-microbubble treated chronic ischemic area ([1]; 6 months after MI surgery, Cu-albumin-microbubble treated): homing signals could not be observed; also recorded: no BMSCs homing signal
- homing of AMD3100 treated BMSCs to acute cardiac infarct area ([1]; within 1 month after MI surgery): could not home cardiac infarct area; also recorded: significant decrease of BMSCs homing signals

Compound: NCCNCCNCCNCCN [TEPA, tetraethylenepentamine]
- copper promotion of angiogenesis, TEPA with copper ([2]; 25 μM TEPA simultaneously with 5 μM copper): blocked; also recorded: completely suppressed the angiogenic promotion effect of 5 μM copper
- angiogenesis, TEPA alone ([2]; 25 μM TEPA): caused an inhibition of angiogenesis
- VEGF levels (VEGF; 25 μM TEPA, with or without 5 μM copper): significantly decreased VEGF levels
- hypoxia-induced activation of HIF-1 (HIF-1): suppressed hypoxia-induced activation of HIF-1

Compound: Copper sulfide
- angiogenesis (area of angiogenic sprouting) ([2]; 5 μM copper, EBM-2 with 1% FBS): stimulated the vascular formation; also recorded: strongest promotion effect on the angiogenesis
- angiogenesis (area of angiogenic sprouting) [2, 3]: lost the pro-angiogenesis effect; also recorded: significantly inhibitory effect
- production of VEGF (protein level) (VEGF; 5 μM copper): did not enhance the production of VEGF
- production of VEGF (protein level) (VEGF; [3]): significantly increased the production of VEGF
